PMC3200564 (European journal of nuclear medicine and molecular imaging, 2011)

Legend:
TEM8 (293-TEM8 cells) = TEM8 (293-TEM8 cells) (Homo sapiens, UniProt Q9H6X2); assay: biochemical; format: binding
[1] = molecular target: T1, extracellular vWA domain of TEM8 (Homo sapiens, UniProt Q9H6X2); assay: biochemical; format: binding
T1 sequence (Q9H6X2 44-215 limits assumed): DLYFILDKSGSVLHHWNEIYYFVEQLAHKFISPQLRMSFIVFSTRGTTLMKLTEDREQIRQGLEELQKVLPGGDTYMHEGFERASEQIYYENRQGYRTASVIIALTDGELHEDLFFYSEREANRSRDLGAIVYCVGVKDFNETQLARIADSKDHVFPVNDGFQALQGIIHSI

Sequence of TEM8 (293-TEM8 cells) (Q9H6X2 33-564): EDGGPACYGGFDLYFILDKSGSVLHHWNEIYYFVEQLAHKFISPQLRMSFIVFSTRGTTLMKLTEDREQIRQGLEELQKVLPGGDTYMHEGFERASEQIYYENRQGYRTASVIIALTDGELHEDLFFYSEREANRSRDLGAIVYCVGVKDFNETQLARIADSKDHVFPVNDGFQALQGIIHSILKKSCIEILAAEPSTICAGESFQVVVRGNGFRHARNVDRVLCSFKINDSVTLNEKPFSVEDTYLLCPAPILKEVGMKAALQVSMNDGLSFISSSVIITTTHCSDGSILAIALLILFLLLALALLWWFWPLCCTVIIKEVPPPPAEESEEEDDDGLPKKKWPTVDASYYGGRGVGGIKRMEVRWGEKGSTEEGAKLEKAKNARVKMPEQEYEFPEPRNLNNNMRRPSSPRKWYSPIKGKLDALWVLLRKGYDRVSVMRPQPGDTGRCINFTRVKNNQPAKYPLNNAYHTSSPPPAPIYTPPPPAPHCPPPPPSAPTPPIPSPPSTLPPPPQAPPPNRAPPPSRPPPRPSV

Q: `CC[C@H](C)[C@H](NC(=O)[C@H](Cc1ccc(O)cc1)NC(=O)[C@H](CC(C)C)NC(=O)[C@@H]1CCCN1C(=O)[C@H](CC(C)C)NC(=O)[C@H](CCCNC(=N)N)NC(=O)[C@H](CC(=O)O)NC(=O)[C@H](CC(N)=O)NC(=O)[C@H](Cc1ccc(O)cc1)NC(=O)[C@@H](N)CCCCN)C(=O)N[C@@H](CO)C(=O)N[C@@H](CC(N)=O)C(=O)N1CCC[C@H]1C(=O)O` [QQM, KYNDRLPLYISNP] was tested. Which IC50 (TEM8 (293-TEM8 cells)) did it give?
A: 33 nM

Q: What about the IC50 [1] of the same molecule?
A: 304 nM
